Laboratory results taken from paper PMC5314947 (Cancer prevention research (Philadelphia, Pa.), 2009).
Several values for one entry are separate records, joined by “and”; a condition that tells them apart may be missing. Identical values can stand only once.

Legend:
[1] = human, in vivo, po
[2] = human, in vivo, po; remark: listed apart in the source
[3] = rat, in vivo; cited from earlier work
[4] = rhesus monkey, in vivo; cited from earlier work

In the case of `COc1cc2c(c3oc(=O)c4c(c13)CCC4=O)[C@@H]1C=CO[C@@H]1O2` [AFB1, aflatoxin B1], the “AUC_Extrap of AFB1 equivalents in plasma” value [1] is reported as 50.9 ± 8%, the “Tmax of AFB1 equivalents in plasma” value [1] is reported as 1.0 h and ~ 1 h and the “ka (absorption rate constant) of AFB1 equivalents in plasma” value [1] is reported as 5.05 ± 1.10 h⁻¹. The “t1/2α (harmonic mean) of AFB1 equivalents in plasma” value [1] was 2.86 h, the “Á (disposition rate constant) of AFB1 equivalents in plasma” value [1] was 0.24 ± 0.06 h⁻¹ and the “β (disposition rate constant) of AFB1 equivalents in plasma” value [1] was 0.01 ± 0.003 h⁻¹. For the same molecule, the “AFB1 dose excreted in urine in the first 72 hours” value [2] was 29.0 ± 2.31% and 34.4 ± 5.60% and 33.3 ± 2.79%, the “in situ absorption rate constant” value [3] was 5.84 ± 0.05 h⁻¹ and the “dose eliminated in urine as unbound within the first 24 hours” value [4] was ~ 30%. For the same molecule, the “dose remaining in the liver” value [4] was 13.6% and the “dose remaining in the plasma” value [4] was 5.8%.
